Laboratory results published in patent US9101136B2, “Synergistic herbicide/fungicide composition containing certain pyridine carboxylic acids and certain fungicides” (Dow AgroSciences LLC, priority 2010, dated 2015).
Read-outs that look alike come from different tables or passages of the source.

Tests used:
Type in all cases: in vivo
[1] = tested on: kochia (Kochia scoparia L; KCHSC); assay: Postemergence herbicidal activity of mixtures on kochia; design: KCHSC Ob: unit: %; settings: for KCHSC Ob (observed control): alone
Description: (§1) Seeds of the desired test plant species were planted in Sun Gro MetroMix 306 planting mixture, which typically has a pH of 6.0 to 6.8 and an organic matter content of about 30 percent, in plastic pots with a surface area of 103.2 square centimeters (cm^2). When required to ensure good germination and healthy plants, a fungicide treatment and/or other chemical or physical treatment was applied. The plants were grown for 7-36 days (d) in a greenhouse with an approximate 14-hour (h) photoperiod which was maintained at about 18° C. during the day and 17° C. during the night. Nutrients and water were added on a regular basis and supplemental lighting was provided with overhead metal halide 1000-Watt lamps as necessary. The plants were employed for testing when they reached the second or third true leaf stage.
(§2) Treatments consisted of a cereal fungicide compound (as listed in Tables 1 through 34) and the cereal herbicide, 4-amino-3-chloro-6-(4-chloro-2-fluoro-3-methoxyphenyl)pyridine-2-carboxylic acid, alone and in combination. Weighed amounts of acid, esters (methyl) or salts (triethylammonium, TEA) of 4-amino-3-chloro-6-(4-chloro-2-fluoro-3-methoxyphenyl)pyridine-2-carboxylic acid (Compound I) were placed in 25 milliliter (mL) glass vials and dissolved in a volume of 97:3 volume-to-volume (v/v) acetone/dimethyl sulfoxide (DMSO) to obtain 4.5 milligrams active ingredient per milliliter (mg ai/mL) concentrated solutions. […] The concentrated solutions of Compound I were diluted to 1.5 mg ai/mL with the addition of 2 volumes of an aqueous mixture containing acetone, water, isopropyl alcohol, DMSO, Agri-dex crop oil concentrate, and Triton® X-77 surfactant in a 64.7:26.0:6.7:2.0:0.7:0.01 v/v ratio. A dilution solution was prepared by mixing 1 volume of 97:3 v/v acetone/DMSO and 2 volumes of an aqueous mixture containing acetone, water, isopropyl alcohol, DMSO, Agri-dex crop oil concentrate, and Triton® X-77 surfactant in a 64.7:26.0:6.7:2.0:0.7:0.01 v/v ratio. Compound requirements are based upon a 12 mL application volume at a rate of 187 liters per hectare (L/ha). The concentrated solutions of the cereal fungicides were prepared following the same procedure. Weighed amounts of fungicide were placed in 25 mL glass vials and dissolved in a volume of 97:3 v/v acetone/DMSO to obtain concentrated fungicide solutions. The concentrated solutions of the safener were prepared following the same procedure. Weighed amounts of safener were placed in 25 mL glass vials and dissolved in a volume of 97:3 v/v acetone/DMSO to obtain concentrated safener solutions.
(§3) Spray solutions of the cereal herbicide and the fungicidal compound mixtures were prepared by adding the concentrated solutions to the appropriate amount of dilution solution to form 12 mL spray solution with active ingredients in combinations. Spray solutions of the cereal herbicide, herbicide safener and the fungicidal compound mixtures were prepared by adding the concentrated solutions to the appropriate amount of dilution solution to form 12 mL spray solution with active ingredients in combinations.
(§4) Formulated compounds were applied to the plant material with an overhead Mandel track sprayer equipped with 8002E nozzles calibrated to deliver 187 L/ha over an application area of 0.503 square meters (m^2) at a spray height of 18 inches […] above average plant canopy. Control plants were sprayed in the same manner with the solvent blank.
(§5) The treated plants and control plants were placed in a greenhouse as described above and watered by sub-irrigation to prevent wash-off of the test compounds. After 20-22 d, the condition of the test plants as compared with that of the control plants was determined visually and scored on a scale of 0 to 100 percent where 0 corresponds to no injury and 100 corresponds to complete kill. […]

[2] = tested on: scented mayweed (Matricaria chamomila L; MATCH); assay: Postemergence herbicidal activity of mixtures on scented mayweed; settings: for MATCH Ob (observed control): alone
Description: as §1, §2, §3, §4, §5

[3] = tested on: Russian thistle (Salsola iberica L; SASKR); assay: Postemergence herbicidal activity of mixtures on Russian thistle; settings: for SASKR Ob (observed control): alone
Description: as §1, §2, §3, §4, §5

[4] = tested on: bird's-eye speedwell (Veronica persica L; VERPE); assay: Postemergence herbicidal activity of mixtures on bird's-eye speedwell; settings: for VERPE Ob (observed control): alone
Description: as §1, §2, §3, §4, §5

[5] = tested on: wild pansy (Viola tricolor L; VIOTR); assay: Postemergence herbicidal activity of mixtures on wild pansy
Description: as §1, §2, §3, §4, §5

Wheat = assay: Safening activity of herbicidal compositions on wheat (crop injury); settings: for TRZAS Ob (observed injury): alone
Description: as §1, §2, §3, §4, §5

Barley = assay: Safening activity of herbicidal compositions on barley (crop injury); settings: for HORVS Ob (observed injury): alone
Description: as §1, §2, §3, §4, §5

CCCCCC(C)OC(=O)COc1ccc(Cl)c2cccnc12 (centres unmarked) [cloquintocet-mexyl]
0%: KCHSC Ob (observed control) ([1]; 4.4 g/ha) | KCHSC Ob (observed control) ([1]; 35 g/ha) | MATCH Ob (observed control) ([2]; 4.4 g/ha) | MATCH Ob (observed control) ([2]; 35 g/ha) | SASKR Ob (observed control) ([3]; 4.4 g/ha) | SASKR Ob (observed control) ([3]; 35 g/ha) | VERPE Ob (observed control) ([4]; 4.4 g/ha) | VERPE Ob (observed control) ([4]; 35 g/ha) | pest or weed control at 4.4 g/ha ([5]; Viola tricolor, post-emergence, alone, 4.4 g/ha, read-out: VIOTR Ob (observed control)) | pest or weed control at 35 g/ha ([5]; Viola tricolor, post-emergence, alone, 35 g/ha, read-out: VIOTR Ob (observed control))

[[2-[(dithiocarboxy)amino]ethyl]carbamo-dithioato(2^−)-κS,κS′]manganese mixture with [[2-[(dithiocarboxy)amino]ethyl]carbamo-dithioato(2^−)-κS,κS′]zinc [Mancozeb]
0%: KCHSC Ob ([1]; fungicide 281.25 g/ha alone) | MATCH Ob ([2]; fungicide 281.25 g/ha alone) | SASKR Ob ([3]; fungicide 281.25 g/ha alone) | VERPE Ob ([4]; fungicide 281.25 g/ha alone) | VIOTR Ob ([5]; fungicide 281.25 g/ha alone)

COc1c(Cl)ccc(-c2nc(C(=O)O)c(Cl)c(N)c2F)c1F [Compound I Acid]
87: MATCH Ob ([2]; Compound I Acid 35 g/ha)
60: VIOTR Ob ([5]; Compound I Acid 35 g/ha)
22: TRZAS Ob (Wheat; Compound I Acid 35 g/ha)
98: KCHSC Ob ([1]; Compound I Acid 35 g/ha)
72: VERPE Ob ([4]; Compound I Acid 35 g/ha)
15: HORVS Ob (Barley; Compound I Acid 35 g/ha)
89: SASKR Ob ([3]; Compound I Acid 35 g/ha)

CC(C)(C)C(O)(CCc1ccc(Cl)cc1)Cn1cncn1 (stereo not drawn) [Tebuconazole, α-[2-(4-chlorophenyl)ethyl]-α-(1,1-dimethylethyl)-1H-1,2,4-triazole-1-ethanol]
0: KCHSC Ob ([1]; fungicide 250 g/ha) | MATCH Ob ([2]; fungicide 250 g/ha) | SASKR Ob ([3]; fungicide 250 g/ha) | VERPE Ob ([4]; fungicide 250 g/ha) | VIOTR Ob ([5]; fungicide 250 g/ha) | TRZAS Ob (Wheat; fungicide 250 g/ha) | HORVS Ob (Barley; fungicide 250 g/ha)
0%: KCHSC Ob (observed control) ([1]; 31.25 g/ha) | KCHSC Ob (observed control) ([1]; 62.5 g/ha) | KCHSC Ob (observed control) ([1]; 250 g/ha) | MATCH Ob (observed control) ([2]; 31.25 g/ha) | MATCH Ob (observed control) ([2]; 62.5 g/ha) | MATCH Ob (observed control) ([2]; 250 g/ha) | SASKR Ob (observed control) ([3]; 31.25 g/ha) | SASKR Ob (observed control) ([3]; 62.5 g/ha) | SASKR Ob (observed control) ([3]; 250 g/ha) | VERPE Ob (observed control) ([4]; 31.25 g/ha) | VERPE Ob (observed control) ([4]; 62.5 g/ha) | VERPE Ob (observed control) ([4]; 250 g/ha) | pest or weed control at 31.25 g/ha ([5]; Viola tricolor, post-emergence, alone, 31.25 g/ha, read-out: VIOTR Ob (observed control)) | pest or weed control at 62.5 g/ha ([5]; Viola tricolor, post-emergence, alone, 62.5 g/ha, read-out: VIOTR Ob (observed control)) | pest or weed control at 250 g/ha ([5]; Viola tricolor, post-emergence, alone, 250 g/ha, read-out: VIOTR Ob (observed control)) | TRZAS Ob (observed injury) (Wheat; 62.5 g/ha) | TRZAS Ob (observed injury) (Wheat; 250 g/ha) | HORVS Ob (observed injury) (Barley; 62.5 g/ha) | HORVS Ob (observed injury) (Barley; 250 g/ha)

N#Cc1c(Cl)c(Cl)c(Cl)c(C#N)c1Cl [Chlorothalonil, 2,4,5,6-tetrachloro-1,3-benzenedicarbonitrile]
0%: pest or weed control at 250 g/ha ([1]; Bassia scoparia, post-emergence, fungicide 250 g/ha alone, read-out: KCHSC Ob) | pest or weed control at 250 g/ha ([2]; Matricaria, post-emergence, fungicide 250 g/ha alone, read-out: MATCH Ob) | pest or weed control at 250 g/ha ([3]; Salsola tragus, post-emergence, fungicide 250 g/ha alone, read-out: SASKR Ob) | pest or weed control at 250 g/ha ([4]; Veronica persica, post-emergence, fungicide 250 g/ha alone, read-out: VERPE Ob) | pest or weed control at 250 g/ha ([5]; Viola tricolor, post-emergence, fungicide 250 g/ha alone, read-out: VIOTR Ob)
